# Results reported in patent publication US20210388007A1, “COMPOUND AND PREPARATION METHOD AND APPLICATION THEREOF” (WUHAN UNIVERSITY, priority 2020, published 2021).
# Experiments:
# [1] = storage stability (sealed storage, degradation rate); format: physicochemical
# Protocol: (§1) The storage stability, light stability and solubility in common solvents of the tri(di)fluoroethanolation reagents 1a, 2a, A2, A3 and A4 prepared in Embodiment 1, Embodiment 23, Embodiment 30, Embodiment 31 and Embodiment 32 of the present disclosure were tested, and the results are shown in Table 1 below.
# [2] = solubility in common solvents of the tri(di)fluoroethanolation reagents; format: physicochemical; settings: for solubility acetonitrile: solvent acetonitrile; for solubility dichloromethane (DCM): solvent dichloromethane (DCM); for solubility ethyl acetate (EA): solvent ethyl acetate (EA); for solubility n-hexane: solvent n-hexane
# Protocol: as §1
# [3] = light stability (continuous white light irradiation, degradation rate); format: physicochemical
# Protocol: as §1
"storage stability, sealed storage at 5° C. for two weeks (degradation rate, mol %) [1]","storage stability, sealed storage at 30° C. for two weeks (degradation rate, mol %) [1]",solubility acetonitrile [2],solubility dichloromethane (DCM) [2],solubility ethyl acetate (EA) [2],solubility n-hexane [2],"light stability, continuous white light irradiation at 25° C. for 2 days (degradation rate, mol %) [3]","storage stability, sealed storage at 5° C. for two weeks (degradation rate, mol %) ([1]; listed as A2)","storage stability, sealed storage at 30° C. for two weeks (degradation rate, mol %) ([1]; listed as A2)",melting point,SMILES
<1% mol %,3.2% mol %,dissolved,dissolved,dissolved,well,<1% mol %,–,–,–,C[Si](c1ccccc1)(c1ccccc1)C(O)C(F)(F)F (racemic) [Embodiment A4]
<1% mol %,5% mol %,dissolved,dissolved,dissolved,dissolved,<1% mol %,–,–,–,C[Si](C)(c1ccccc1)C(O)C(F)(F)F (racemic) [a1]
<1% mol %,4% mol %,dissolved,dissolved,dissolved,dissolved,<1% mol %,2% mol %,14% mol %,–,C[Si](C)(c1ccccc1)C(O)C(F)F (racemic) [a2]
–,–,–,–,–,–,–,–,–,116 to 118 °C,"CC1(CC(O)C(F)(F)F)C(=O)N(c2ccccc2)c2ccccc21 (stereo not shown) [Embodiment 21, 3-methyl-1-phenyl-3-(3,3,3-trifluoro-2-hydroxypropyl)indol-2-one]"

SMILES,"storage stability, sealed storage at 5° C. for two weeks (degradation rate, mol %) [1]","storage stability, sealed storage at 30° C. for two weeks (degradation rate, mol %) [1]",solubility acetonitrile [2],solubility dichloromethane (DCM) [2],solubility ethyl acetate (EA) [2],solubility n-hexane [2],"light stability, continuous white light irradiation at 25° C. for 2 days (degradation rate, mol %) [3]","storage stability, sealed storage at 5° C. for two weeks (degradation rate, mol %) ([1]; listed as A2)","storage stability, sealed storage at 30° C. for two weeks (degradation rate, mol %) ([1]; listed as A2)",melting point
OC(C(F)(F)F)[Si](c1ccccc1)(c1ccccc1)c1ccccc1 (stereo not shown) [Embodiment A3],<1% mol %,<1% mol %,dissolved,dissolved,dissolved,slightly,<1% mol %,–,–,–
